Test results from PubChem BioAssay (NCI).
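Assay format: 96-well plates, 48-hour exposure. At the GI50, growth is halved. TGI: concentration producing complete growth inhibition.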

Key:
Assay in all cases: NCI anticancer screen, dose series, 48 h
HT29 colon = system: HT29 colon
HCC-2998 colon = system: HCC-2998 colon
RXF 393 renal = system: RXF 393 renal
OVCAR-8 ovarian = system: OVCAR-8 ovarian
SW-620 colon = system: SW-620 colon
TK-10 renal = system: TK-10 renal
CCRF-CEM leukemia = system: CCRF-CEM leukemia
NCI/ADR-RES ovarian = system: NCI/ADR-RES ovarian
DU-145 prostate = system: DU-145 prostate
HOP-92 NSCLC = system: HOP-92 NSCLC
NCI-H226 lung = system: NCI-H226 lung
UO-31 renal = system: UO-31 renal
K-562 leukemia = system: K-562 leukemia
MDA-MB-468 breast = system: MDA-MB-468 breast
BT-549 breast = system: BT-549 breast
NCI-H23 lung = system: NCI-H23 lung
OVCAR-4 ovarian = system: OVCAR-4 ovarian
HCT-116 colon = system: HCT-116 colon
A498 renal = system: A498 renal
T-47D breast = system: T-47D breast
HOP-62 NSCLC = system: HOP-62 NSCLC
A549 NSCLC = system: A549 NSCLC
SF-268 CNS = system: SF-268 CNS
MDA-MB-435 = system: MDA-MB-435
KM12 colon = system: KM12 colon
UACC-62 melanoma = system: UACC-62 melanoma
MALME-3M melanoma = system: MALME-3M melanoma
LOX IMVI melanoma = system: LOX IMVI melanoma
SK-OV-3 ovarian = system: SK-OV-3 ovarian
SK-MEL-5 melanoma = system: SK-MEL-5 melanoma
SK-MEL-2 melanoma = system: SK-MEL-2 melanoma
RPMI-8226 leukemia = system: RPMI-8226 leukemia
786-0 renal = system: 786-0 renal
NCI-H522 lung = system: NCI-H522 lung
COLO 205 colon = system: COLO 205 colon
IGROV1 ovarian = system: IGROV1 ovarian
MOLT-4 leukemia = system: MOLT-4 leukemia
MDA-MB-231 breast = system: MDA-MB-231 breast
HCT-15 colon = system: HCT-15 colon
SF-295 CNS = system: SF-295 CNS
SR leukemia = system: SR leukemia
MCF7 breast = system: MCF7 breast
SN12C renal = system: SN12C renal
U251 CNS = system: U251 CNS
OVCAR-3 ovarian = system: OVCAR-3 ovarian
CAKI-1 renal = system: CAKI-1 renal
SK-MEL-28 melanoma = system: SK-MEL-28 melanoma
PC-3 prostate = system: PC-3 prostate
OVCAR-5 ovarian = system: OVCAR-5 ovarian
UACC-257 melanoma = system: UACC-257 melanoma
M14 melanoma = system: M14 melanoma
NCI-H460 lung = system: NCI-H460 lung
SNB-75 CNS = system: SNB-75 CNS
SF-539 CNS = system: SF-539 CNS
ACHN renal = system: ACHN renal
HS 578T breast = system: HS 578T breast
EKVX NSCLC = system: EKVX NSCLC
SNB-19 CNS = system: SNB-19 CNS
HL-60(TB) leukemia = system: HL-60(TB) leukemia

O=C(Nc1ccc(Cl)c(C(F)(F)F)c1)c1cncc(C#Cc2cnc3ccc(N4CCOCC4)nn23)c1
GI50 (HT29 colon): 1000 nM | TGI (HT29 colon): 11.1 µM | GI50 (HCC-2998 colon): 2060 nM | TGI (HCC-2998 colon): 15.2 µM | GI50 (RXF 393 renal): 818 nM | TGI (RXF 393 renal): 2870 nM | GI50 (OVCAR-8 ovarian): 2500 nM | TGI (OVCAR-8 ovarian): 19.4 µM | GI50 (SW-620 colon): 1650 nM | TGI (SW-620 colon): > 81 µM | GI50 (TK-10 renal): 2060 nM | TGI (TK-10 renal): 30.9 µM | GI50 (CCRF-CEM leukemia): 2580 nM | TGI (CCRF-CEM leukemia): > 81 µM | GI50 (NCI/ADR-RES ovarian): 2450 nM | TGI (NCI/ADR-RES ovarian): 15 µM | GI50 (DU-145 prostate): 2860 nM | TGI (DU-145 prostate): > 81 µM | GI50 (HOP-92 NSCLC): 255 nM | TGI (HOP-92 NSCLC): 1550 nM | GI50 (NCI-H226 lung): 361 nM | TGI (NCI-H226 lung): 12.5 µM | GI50 (UO-31 renal): 562 nM | TGI (UO-31 renal): 6.24 µM | GI50 (K-562 leukemia): 728 nM | TGI (K-562 leukemia): > 81 µM | GI50 (MDA-MB-468 breast): 2540 nM | TGI (MDA-MB-468 breast): 14.2 µM | GI50 (BT-549 breast): 1430 nM | TGI (BT-549 breast): 6.62 µM | GI50 (NCI-H23 lung): 842 nM | TGI (NCI-H23 lung): 5.33 µM | GI50 (OVCAR-4 ovarian): 3.8 µM | TGI (OVCAR-4 ovarian): > 81 µM | GI50 (HCT-116 colon): 356 nM | TGI (HCT-116 colon): 3.11 µM | GI50 (A498 renal): 1980 nM | TGI (A498 renal): 6.82 µM | GI50 (T-47D breast): 1890 nM | TGI (T-47D breast): 17.4 µM | GI50 (HOP-62 NSCLC): 912 nM | TGI (HOP-62 NSCLC): 9.9 µM | GI50 (A549 NSCLC): 2150 nM | TGI (A549 NSCLC): > 81 µM | GI50 (SF-268 CNS): 2180 nM | TGI (SF-268 CNS): 31.5 µM | GI50 (MDA-MB-435): 1440 nM | TGI (MDA-MB-435): > 81 µM | GI50 (KM12 colon): 8.1 nM | TGI (KM12 colon): 46.4 µM | GI50 (UACC-62 melanoma): 785 nM | TGI (UACC-62 melanoma): 3.63 µM | GI50 (MALME-3M melanoma): 854 nM | TGI (MALME-3M melanoma): 5.62 µM | GI50 (LOX IMVI melanoma): 812 nM | TGI (LOX IMVI melanoma): 4.35 µM | GI50 (SK-OV-3 ovarian): 2590 nM | TGI (SK-OV-3 ovarian): 11.5 µM | GI50 (SK-MEL-5 melanoma): 2070 nM | TGI (SK-MEL-5 melanoma): 7.78 µM | GI50 (SK-MEL-2 melanoma): 1310 nM | TGI (SK-MEL-2 melanoma): 3.23 µM | GI50 (RPMI-8226 leukemia): 2420 nM | TGI (RPMI-8226 leukemia): > 81 µM | GI50 (786-0 renal): 2680 nM | TGI (786-0 renal): 11.8 µM | GI50 (NCI-H522 lung): 1600 nM | TGI (NCI-H522 lung): 7.49 µM | GI50 (COLO 205 colon): 1170 nM | TGI (COLO 205 colon): 9.92 µM | GI50 (IGROV1 ovarian): 579 nM | TGI (IGROV1 ovarian): 4.96 µM | GI50 (MOLT-4 leukemia): 1590 nM | TGI (MOLT-4 leukemia): 4.77 µM | GI50 (MDA-MB-231 breast): 321 nM | TGI (MDA-MB-231 breast): 3.1 µM | GI50 (HCT-15 colon): 2550 nM | TGI (HCT-15 colon): > 81 µM | GI50 (SF-295 CNS): 2650 nM | TGI (SF-295 CNS): 33.9 µM | GI50 (SR leukemia): 1410 nM | TGI (SR leukemia): > 81 µM | GI50 (MCF7 breast): 1910 nM | TGI (MCF7 breast): 15.4 µM | GI50 (SN12C renal): 749 nM | TGI (SN12C renal): > 81 µM | GI50 (U251 CNS): 3.62 µM | TGI (U251 CNS): > 81 µM | GI50 (OVCAR-3 ovarian): 3.93 µM | TGI (OVCAR-3 ovarian): > 81 µM | GI50 (CAKI-1 renal): 2070 nM | TGI (CAKI-1 renal): 11.1 µM | GI50 (SK-MEL-28 melanoma): 1240 nM | TGI (SK-MEL-28 melanoma): 7.05 µM | GI50 (PC-3 prostate): 2510 nM | TGI (PC-3 prostate): 24.4 µM | GI50 (OVCAR-5 ovarian): 883 nM | TGI (OVCAR-5 ovarian): 18.7 µM | GI50 (UACC-257 melanoma): 2120 nM | TGI (UACC-257 melanoma): 21.4 µM | GI50 (M14 melanoma): 717 nM | TGI (M14 melanoma): 3.01 µM | GI50 (NCI-H460 lung): 2670 nM | TGI (NCI-H460 lung): 19.1 µM | GI50 (SNB-75 CNS): 1150 nM | TGI (SNB-75 CNS): 4.59 µM | GI50 (SF-539 CNS): 160 nM | TGI (SF-539 CNS): 1640 nM | GI50 (ACHN renal): 1540 nM | TGI (ACHN renal): 10.3 µM | GI50 (HS 578T breast): 809 nM | TGI (HS 578T breast): 4.15 µM | GI50 (EKVX NSCLC): 2120 nM | TGI (EKVX NSCLC): 21.2 µM | GI50 (SNB-19 CNS): 2620 nM | TGI (SNB-19 CNS): 7.93 µM | GI50 (HL-60(TB) leukemia): 256 nM | TGI (HL-60(TB) leukemia): 3.87 µM
